Results taken from PubChem BioAssay AID248 (DTP/NCI, 2004).
Where “and” joins values, the source holds several entries; their conditions need not be identical. Equal entries are not always repeated. Toxic doses and inconclusive results are not listed. Cut-off read from the data, not from the text of the source: active = T/C of 150% or more; inactive = T/C below 125%.

Test system: L1210 leukemia ip in BDF1 mice, survival T/C
Test: NCI In Vivo Anticancer Drug Screen. Data for tumor model L1210 Leukemia (intraperitoneal) in B6D2F1 (BDF1) mice
Details: endpoint: mean survival time, higher = longer survival
How it was run: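 Each compound was tested against a transplantable tumor grown in mice. The endpoint was survival, with treated animals benchmarked against vehicle controls as a simple ratio.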

[1] = dose: 100.0 mg/kg/injection, schedule: Q01DX001 (ip), vehicle: Klucel (hydroxypropylcellulose) (HPC)
[2] = dose: 100.0 mg/kg/injection, schedule: Q01DX001 (ip), vehicle: carboxymethylcellulose (CMC)
[3] = dose: 100.0 mg/kg/injection, schedule: Q01DX009 (ip), vehicle: Klucel (hydroxypropylcellulose) (HPC)
[4] = dose: 100.0 mg/kg/injection, schedule: Q04DX003 (ip), vehicle: Klucel (hydroxypropylcellulose) (HPC)
[5] = dose: 200.0 mg/kg/injection, schedule: Q01DX001 (ip), vehicle: Klucel (hydroxypropylcellulose) (HPC)
[6] = dose: 200.0 mg/kg/injection, schedule: Q01DX001 (ip), vehicle: carboxymethylcellulose (CMC)
[7] = dose: 200.0 mg/kg/injection, schedule: Q01DX009 (ip), vehicle: Klucel (hydroxypropylcellulose) (HPC)
[8] = dose: 200.0 mg/kg/injection, schedule: Q04DX003 (ip), vehicle: Klucel (hydroxypropylcellulose) (HPC)
[9] = dose: 400.0 mg/kg/injection, schedule: Q01DX001 (ip), vehicle: Klucel (hydroxypropylcellulose) (HPC)
[10] = dose: 400.0 mg/kg/injection, schedule: Q01DX009 (ip), vehicle: Klucel (hydroxypropylcellulose) (HPC)
[11] = dose: 400.0 mg/kg/injection, schedule: Q04DX003 (ip), vehicle: Klucel (hydroxypropylcellulose) (HPC)
[12] = dose: 15.0 mg/kg/injection, schedule: Q01DX Z (ip), vehicle: carboxymethylcellulose (CMC)
[13] = dose: 30.0 mg/kg/injection, schedule: Q01DX Z (ip), vehicle: carboxymethylcellulose (CMC)
[14] = dose: 60.0 mg/kg/injection, schedule: Q01DX Z (ip), vehicle: carboxymethylcellulose (CMC)
[15] = dose: 120.0 mg/kg/injection, schedule: Q01DX Z (ip), vehicle: carboxymethylcellulose (CMC)
[16] = dose: 100.0 mg/kg/injection, schedule: Q01DX001 (ip), vehicle: other
[17] = dose: 200.0 mg/kg/injection, schedule: Q01DX001 (ip), vehicle: other
[18] = dose: 400.0 mg/kg/injection, schedule: Q01DX001 (ip), vehicle: other
[19] = dose: 100.0 mg/kg/injection, schedule: Q01DX001 (ip), vehicle: saline
[20] = dose: 200.0 mg/kg/injection, schedule: Q01DX001 (ip), vehicle: saline
[21] = dose: 400.0 mg/kg/injection, schedule: Q01DX001 (ip), vehicle: saline
[22] = dose: 100.0 mg/kg/injection, schedule: Q01DX009 (ip), vehicle: saline with Tween-80
[23] = dose: 100.0 mg/kg/injection, schedule: Q04DX003 (ip), vehicle: saline with Tween-80
[24] = dose: 200.0 mg/kg/injection, schedule: Q01DX009 (ip), vehicle: saline with Tween-80

Measured: T/C

O=[N+]([O-])c1ccc(O)c(C2N(Cc3ccc(N(CCCl)CCCl)cc3)CCCN2Cc2ccc(N(CCCl)CCCl)cc2)c1
inactive: dose: 50.0 mg/kg/injection, schedule: Q01DX001 (ip), vehicle: carboxymethylcellulose (CMC) 109 % of control | [1] 93 % of control | [2] 109 % of control | [3] 93 % of control | [4] 103 % of control | [5] 95 % of control | [6] 118 % of control | [7] 98 % of control | [8] 97 % of control | [9] 95 % of control | [10] 94 % of control | [11] 95 % of control

O=C1/C(=C\c2cccc3ccccc23)COC/C1=C/c1cccc2ccccc12
inactive: dose: 100.0 mg/kg/injection, schedule: Q01DX009 (ip), vehicle: saline 93 % of control | dose: 200.0 mg/kg/injection, schedule: Q01DX009 (ip), vehicle: saline 97 % of control | dose: 400.0 mg/kg/injection, schedule: Q01DX009 (ip), vehicle: saline 98 % of control

COc1ccc(/C=N\N/C(N)=N\N=C\c2ccc(OC)cc2)cc1
inactive: [12] 89 % of control | [13] 97 % of control | [14] 93 % of control and 101 % of control | [15] 92 % of control | dose: 240.0 mg/kg/injection, schedule: Q01DX Z (ip), vehicle: carboxymethylcellulose (CMC) 100 % of control | dose: 240.0 mg/kg/injection, schedule: Q01DX Z (oral), vehicle: carboxymethylcellulose (CMC) 107 % of control | dose: 480.0 mg/kg/injection, schedule: Q01DX Z (ip), vehicle: carboxymethylcellulose (CMC) 90 % of control | dose: 480.0 mg/kg/injection, schedule: Q01DX Z (oral), vehicle: carboxymethylcellulose (CMC) 105 % of control | dose: 960.0 mg/kg/injection, schedule: Q01DX Z (oral), vehicle: carboxymethylcellulose (CMC) 104 % of control | dose: 1920.0 mg/kg/injection, schedule: Q01DX Z (oral), vehicle: carboxymethylcellulose (CMC) 102 % of control

Cc1ccc(S(=O)(=O)NCC(=O)NCCC#N)cc1
inactive: [1] 103 % of control | [5] 97 % of control | [9] 92 % of control

O=C(O)c1ccccc1C(=O)NCCCc1ccccc1
inactive: [16] 98 % of control | [17] 98 % of control | [18] 96 % of control

CCOc1ccc(C2NC(=O)c3ccccc3N2)cc1 (stereo unspecified)
inactive: [3] 104 % of control | [4] 91 % of control | [7] 97 % of control | [8] 98 % of control | [10] 97 % of control | [11] 98 % of control

CCc1ccc(CC(=S)N2CCOCC2)cc1
inactive: [2] 101 % of control | [6] 95 % of control | dose: 400.0 mg/kg/injection, schedule: Q01DX001 (ip), vehicle: carboxymethylcellulose (CMC) 109 % of control

CCC(C(=O)O)N1C(=O)c2ccccc2C1=O (stereo unspecified)
inactive: [19] 102 % of control | [20] 97 % of control | [21] 103 % of control

O=C(Nc1ccc(Cl)cc1)NC1CC1
inactive: dose: 62.5 mg/kg/injection, schedule: Q01DX009 (ip), vehicle: saline with Tween-80 91 % of control | dose: 125.0 mg/kg/injection, schedule: Q01DX009 (ip), vehicle: saline with Tween-80 90 % of control | dose: 250.0 mg/kg/injection, schedule: Q01DX009 (ip), vehicle: saline with Tween-80 95 % of control

CCCCC(=O)N/N=C/c1ccccc1C(=O)O
inactive: [19] 96 % of control | [20] 107 % of control | [21] 91 % of control

CC(=O)C(Sc1ccccc1[N+](=O)[O-])C(C)=O.[Cr]
inactive: dose: 50.0 mg/kg/injection, schedule: Q01DX001 (ip), vehicle: other 94 % of control | [16] 88 % of control | [18] 88 % of control

Cc1ccc(NC(=O)Oc2cccnc2)cc1NC(=O)Oc1cccnc1
inactive: [3] 93 % of control | [7] 94 % of control

CC(C(=O)c1ccc(Br)cc1)C(Br)c1ccccc1 (stereo unspecified)
inactive: [22] 95 % of control | [23] 96 % of control | [24] 95 % of control | dose: 200.0 mg/kg/injection, schedule: Q04DX003 (ip), vehicle: saline with Tween-80 91 % of control | dose: 400.0 mg/kg/injection, schedule: Q01DX009 (ip), vehicle: saline with Tween-80 95 % of control | dose: 400.0 mg/kg/injection, schedule: Q04DX003 (ip), vehicle: saline with Tween-80 98 % of control

CN(O)C(=O)OC(C)(C)C
inactive: [16] 108 % of control | [17] 108 % of control | [18] 114 % of control

O=C(O)c1ccc(CCCCCCl)cc1
inactive: [22] 103 % of control | [24] 111 % of control

O=C(Nc1cccc(C2=NCCN2)c1)c1ccc2cc(C(=O)Nc3cccc(C4=NCCN4)c3)ccc2c1
inactive: dose: 7.5 mg/kg/injection, schedule: Q01DX Z (ip), vehicle: carboxymethylcellulose (CMC) 106 % of control | [12] 104 % of control and 115 % of control | [13] 104 % of control and 123 % of control | [14] 119 % of control | [15] 120 % of control

CCOc1c(Cl)cc(Cl)cc1C(c1ccc(Cl)cc1S(=O)(=O)O)c1cc(Cl)cc(Cl)c1OCC
inactive: [23] 89 % of control
